Source: patent US20250352544A1, “TREATMENT OF MUSCLE ATROPHY USING GSK-3 INHIBITORS” (Technion Research & Development Foundation Limited, priority 2024, published 2025)
Entries after “also recorded” stand apart in the source; their conditions may differ. Non-standard residues stand in square brackets, D forms with d. *: point of attachment. Myristoyl = CCCCCCCCCCCCCC(=O)*; pS = N[C@@H](COP(=O)(O)O)C(=O)O

Key:
[1] = test system: fasting (atrophy-induced) mice, Tibialis Anterior (TA) muscle; assay: Fasting-induced muscle atrophy in mice treated with GSK-3 inhibitors; assay type: in vivo; details: for TA muscle weight (muscle atrophy): i.p. 0.5 mg CHIR98014 or 0.3 mg L803mts per mouse on day 1 and day 2 of fasting, vs fed and fasting vehicle controls (FIG. 3)
Text: All animal experiments were consistent with Israel Council on Animal Experiments guidelines and the Institutional Regulations of Animal Care and Use. Specialized personnel provided mice care in the institutional animal facility. In fasting (2 d) experiments, food was removed from cages on the fifth day after electroporation.
Mice were divided into two groups: those subjected to fasting to induce muscle atrophy, and those that were fed and used as fed control. Mice of the fasting group were injected intraperitoneally with either CHIR98014 or L803mts to examine their effect on muscle wasting. Control groups (Fed, fasting) were injected with vehicle (3% DMSO in saline). Each mouse (27-30 grams body weight) was injected with 0.3 mg L803mts or 0.5 mg CHIR98014, twice: on the first and then on the second day of fasting. Whole Tibilis anterior (TA) muscles were then collected and the weight loss in these samples over 2 days was measured.
Tideglusib (4.35 mg/ml) was mixed with 26% PEG400 (v/v), 15% Cremophor EL (v/v), and 59% ddH2O (v/v), to a total volume of 2.3 ml. Each mouse received 200 microliter (μL) (0.87 mg Tideglusib) of the solution on the first day of fasting, and 150 μL (0.65 mg Tideglusib) on the second day.
Then, the efficacy of CHIR99021, another exemplary ATP-competitive GSK3β inhibitor, was evaluated. To this, fasting (atrophy-induced) mice were injected intraperitoneally with 16 mg/kg CHIR99021 (200 μL per mouse) on day 1 and on day 2 of fasting. At the end of the experiment, mice were sacrificed, and their tibialis anterior (TA) muscles were dissected and weighed, in comparison with fed mice and untreated fasting (atrophy-induced) mice.

GSK-3 = details: background statement; cited from earlier work

| Compound | effect on muscle atrophy (body weight and TA muscle to body weight ratio) ([1]; 2-day fasting mice, Tideglusib via gavage, 0.87 mg on day 1 and 0.65 mg on day 2 (20-30 mg/kg) (FIGS. 4A-B)) | GSK-3 inhibition, potency and selectivity (GSK-3) | TA muscle weight (muscle atrophy) ([1]; 2-day fasting mice) | TA muscle weight (muscle loss) ([1]; fasting mice, CHIR99021 16 mg/kg i.p. on day 1 and day 2 of fasting, data not shown, 16 mg/kg) |
| --- | --- | --- | --- | --- |
| O=c1sn(-c2cccc3ccccc23)c(=O)n1Cc1ccccc1 [Tideglusib] | minimal effect on preventing muscle atrophy; also recorded: minor effect in treating muscle atrophy |  |  |  |
| Nc1nc(NCCNc2ncc(-n3ccnc3)c(-c3ccc(Cl)cc3Cl)n2)ccc1[N+](=O)[O-] [CHIR98014] |  | highly potent and selective inhibitors of GSK-3 | no reduction in muscle weight compared to control; also recorded: completely prevented the reduction in muscle mass |  |
| Myr-Gly-Lys-Glu-Ala-Pro-Pro-Ala-Pro-Pro-Gln-{Ser(p)}-Pro-NH2 (Myristoyl-GKEAPPAPPQ[pS]P-NH2; SMILES CCCCCCCCCCCCCC(=O)NCC(=O)N[C@@H](CCCCN)C(=O)N[C@@H](CCC(=O)O)C(=O)N[C@@H](C)C(=O)N1CCC[C@H]1C(=O)N1CCC[C@H]1C(=O)N[C@@H](C)C(=O)N1CCC[C@H]1C(=O)N1CCC[C@H]1C(=O)N[C@@H](CCC(N)=O)C(=O)N[C@@H](COP(=O)(O)O)C(=O)N1CCC[C@H]1C(N)=O) [L803-mts] |  |  | attenuation in muscle weight; also recorded: inferior activity to that of CHIR98014 |  |
| Cc1c[nH]c(-c2cnc(NCCNc3ccc(C#N)cn3)nc2-c2ccc(Cl)cc2Cl)n1 [CHIR99021] |  | highly potent and selective inhibitors of GSK-3 |  | did not mitigate this muscle loss; also recorded: inferior activity |
